In patent US8524809B2, “Low odor compositions and methods to attain low odor compositions” (Rohm and Haas Company, priority 2010, dated 2013):

Experiment: NaBH4 treatment: headspace composition of acrylic latex AC261
Details: 1 week, 500 ppm NaBH4 (with 60 ppm CALBL where combined)
Procedure: Headspace VOC content in aqueous compositions was determined by a method based on ASTM 3960: Standard Practice for Determining Volatile Organic Compound (VOC) Content of Paints and Related Coatings. This method uses static headspace sampling/GC-MS at 33° C. to determine the headspace concentrations of compounds above aqueous emulsion polymers or waterborne paints.
Weigh 5 g of each sample into 22 ml headspace vials with aluminum caps and crimp the cap tightly. Repeat the procedure with water blanks to be run, at a minimum, at the beginning and end of a sequence of samples. Analyze the samples via headspace GC-MS. Integrate all peaks in the resulting chromatogram that have a signal greater than five times the root-mean-square baseline noise. Once a satisfactory separation of the volatiles is achieved, mass spectral analysis and/or retention time matching against known compounds is used to identify the compounds detected. Determine the concentration of each calibrated compound in the sample headspace using the linear-least-squares equation from the calibration plot for that compound. Levels of the component in the headspace are reliable to 0.1 ppm by the GC-MS technique.

Structure (SMILES): [BH4-].[Na+] [NaBH4, sodium borohydride]
- Level of 2-butenoic acid, butyl ester in headspace: 65 ppm
- Level of 2-methyl-3-hexanone in headspace: 0 ppm
- Level of Acetone in headspace: 0 ppm
- Level of Butanal in headspace: 0 ppm
- Level of Isobutyraldehyde in headspace: 0 ppm
- Level of benzaldehyde in headspace: 0 ppm
- Level of butyl acetate in headspace: 104 ppm
- Level of butyl acrylate in headspace: 67 ppm
- Level of butyl propionate in headspace: 207 ppm
- Level of methyl isobutyrate in headspace: 17 ppm
